Like-named read-outs stand apart in the source and are kept apart here.
Key:
[1] = target: hP2X3 (human purinergic P2X receptor subtype 3) (Homo sapiens (Human), UniProt P56373); experiment: FLIPR calcium assay, hP2X3 expressed in HEK293 cells; format: cell-based; details: read-out: P2X3 IC50
[2] = target: hP2X2/3 (heterodimeric receptors formed by human purinergic P2X receptors subtype 2 and subtype 3) (Homo sapiens (Human), UniProt P56373+Q9UBL9); experiment: FLIPR calcium assay, hP2X2/3 expressed in HEK293 cells (P2X2/3 receptor selectivity); format: cell-based; details: for IC50: HEK293 cells expressing hP2X2/3, agonist BZ-ATP 5 μM, unit inferred
[3] = system: Male Dunkin Hartley guinea pigs; experiment: Citric acid only cough model; format: in vivo, guinea pig; parameters: Mean cough latency: unit not given beside the values; details: for Number of coughs and cough latency (in words): compared with the blank vehicle or the condition before administration; for inhibition in vivo at 30 mg/kg: Cavia porcellus; for Mean number of coughs: 17.5% citric acid
Procedure: Male Dunkin Hartley guinea pigs (300-350 g) were placed in an animal atomization box, and then the door of the atomization box was closed while the ultrasonic atomizer (Guangdong Yuehua) was turned on. 17.5% citric acid gas was introduced into the atomization box at a maximum atomization rate (about 2 mL/min) for 20 s, and coughs of the animals within 10 min were continuously observed from the time of the start of atomization. During the 10-min observation, coughs of the animals were counted manually, and the number of coughs were judged according to cough postures of the guinea pigs, such as abdominal twitching, mouth opening, and head inclining downward abruptly. The number of coughs during the first 5 min and that during 10 min were recorded, and the cough latency of the guinea pigs, namely the time from the initiation of citric acid induction to the appearance of the first cough, was also recorded.

[4] = In vitro cytotoxicity assay, CCK-8 method; format: cell-based; details: human, HepG2 cells
Procedure: In vitro cytotoxicity assay for the compounds disclosed herein was performed in HepG2 cells using the CCK-8 method. HepG2 cells (Beina Bio) in the logarithmic growth phase were collected, the concentration of cell suspension was adjusted, and then the cells were plated on a 96-well cell culture plate at 50,000 cells/well. The cells were then incubated overnight in a cell incubator of 5% […] at 37° C., and after 80-90% cell confluence was achieved, test compounds or vehicle (DMSO) at various concentration gradients were added after medium change. The plate was incubated in a cell incubator of 5% […] at 37° C. for 48 h. After the treatment, the medium in the plate was discarded. The plate was washed twice with PBS, added with CCK-8 working solution (Beyotime) at 100 μL per well, and then incubated at 37° C. for 1.5 h away from light. Absorbance at OD450nm was measured for each well on a microplate reader, and CC50 value of each compound was analyzed and calculated.

[5] = system: Male SD rats; experiment: Two-bottle dysgeusia test (quinine water vs normal water); format: in vivo, rat; details: for Ratio of quinine/water intake (in words): compared with the blank vehicle; for Quinine/tap water* 100%: rats, single intraperitoneal injection
Procedure: All drinking water bottles were removed out 20 h before the start of the formal experiment, and all the animals were deprived of water until the start of the experiment. In the experiment, all the animals were randomly grouped and then subjected to a single intraperitoneal injection of a test compound or a vehicle before water was resupplied. The administration time was determined according to the Tmax of the test compound. Then the animals were placed in separate cages, and two bottles of drinking water (one bottle of normal drinking water and one bottle of 0.3 mM quinine water) were provided.

[6] = In vitro metabolic stability, rat liver microsome; format: in vitro ADME; details: liver microsomes, 1 mg/mL liver microsome protein, 37° C., NA = essentially not metabolized, read-out: T1/2 in rat liver microsome
Procedure: (§1) The in vitro metabolic stability of the compounds disclosed herein was determined through incubation of liver microsomes of various species. […] At each time point, 100 μL of the reaction mixture was added into a centrifuge tube containing 400 μL of internal standard working solution (containing a 200 ng/mL solution of dexamethasone, diclofenac, tolbutamide and labetalol in acetonitrile) precooled at 0° C. so as to terminate the reaction, and the mixture was then centrifuged at 10,000 g for 10 min at 4° C. The supernatant was collected for LC-MS assay so as to obtain the values of in vitro metabolic half-life of the test compounds in liver microsomes of various species.

[7] = In vitro metabolic stability, guinea pig liver microsome; format: in vitro ADME; details: liver microsomes, 1 mg/mL liver microsome protein, 37° C., NA = essentially not metabolized, read-out: T1/2 in guinea pig liver microsome
Procedure: The in vitro metabolic stability of the compounds disclosed herein was determined through incubation of liver microsomes of various species. A proper amount of test compound was added into a liver microsome reaction system (1 mg/mL liver microsome protein, 25 U/mL glucose-6 phosphate dehydrogenase, 1 mM NADP, 6 mM D-glucose 6-phosphate and 5 mM MgCl2), and then the mixture was incubated in a water bath kettle at 37° C. to start the reaction. At each time point, 100 μL of the reaction mixture was added into a centrifuge tube containing 400 μL of internal standard working solution (containing a 200 ng/mL solution of dexamethasone, diclofenac, tolbutamide and labetalol in acetonitrile) precooled at 0° C. so as to terminate the reaction, and the mixture was then centrifuged at 10,000 g for 10 min at 4° C. The supernatant was collected for LC-MS assay so as to obtain the values of in vitro metabolic half-life of the test compounds in liver microsomes of various species.

[8] = In vitro metabolic stability, human liver microsome; format: in vitro ADME; details: liver microsomes, 1 mg/mL liver microsome protein, 37° C., NA = essentially not metabolized, read-out: T1/2 in human liver microsome
Procedure: as §1

[9] = 30 mg/kg, read-out: Cough inhibition rate Vs Baseline (%)
[10] = 30 mg/kg, read-out: Cough inhibition rate Vs Vehicle (%)
[11] = Table 8, 20 mg/kg, water intake within 15 min, 0.3 mM quinine
[12] = before administration (baseline of the group)

hP2X3 (human purinergic P2X receptor subtype 3), sequence (P56373 whole entry): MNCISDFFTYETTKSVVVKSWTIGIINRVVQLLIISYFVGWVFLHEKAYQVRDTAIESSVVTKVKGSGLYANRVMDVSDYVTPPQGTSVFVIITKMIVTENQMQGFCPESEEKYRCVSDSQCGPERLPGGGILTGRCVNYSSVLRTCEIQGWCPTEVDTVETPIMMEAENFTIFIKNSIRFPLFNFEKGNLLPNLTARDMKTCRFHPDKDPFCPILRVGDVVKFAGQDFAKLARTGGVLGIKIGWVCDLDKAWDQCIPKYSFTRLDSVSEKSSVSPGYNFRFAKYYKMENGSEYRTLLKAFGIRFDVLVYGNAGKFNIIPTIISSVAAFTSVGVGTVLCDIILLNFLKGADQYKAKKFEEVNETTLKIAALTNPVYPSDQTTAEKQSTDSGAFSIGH
hP2X2/3 (heterodimeric receptors formed by human purinergic P2X receptors subtype 2 and subtype 3), sequence (P56373 whole entry): as above
hP2X2/3 (heterodimeric receptors formed by human purinergic P2X receptors subtype 2 and subtype 3), sequence (Q9UBL9 whole entry): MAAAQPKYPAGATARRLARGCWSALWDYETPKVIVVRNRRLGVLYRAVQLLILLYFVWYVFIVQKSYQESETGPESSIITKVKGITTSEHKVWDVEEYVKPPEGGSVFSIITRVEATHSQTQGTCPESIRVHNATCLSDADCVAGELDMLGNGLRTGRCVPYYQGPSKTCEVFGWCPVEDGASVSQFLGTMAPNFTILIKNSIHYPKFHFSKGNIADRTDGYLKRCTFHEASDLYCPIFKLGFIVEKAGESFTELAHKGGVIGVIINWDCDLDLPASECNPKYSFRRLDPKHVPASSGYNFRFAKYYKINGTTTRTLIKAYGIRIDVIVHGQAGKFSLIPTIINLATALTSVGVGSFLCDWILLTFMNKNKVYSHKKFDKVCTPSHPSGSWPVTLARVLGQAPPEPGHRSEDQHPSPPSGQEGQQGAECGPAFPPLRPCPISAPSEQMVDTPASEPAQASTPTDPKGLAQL

Quinine/tap water* 100% ([5]; Table 9, 10 mg/kg) [%] | Quinine/tap water* 100% ([5]; Table 9, 20 mg/kg) [%] | SMILES | IC50 [1] [µM] | Folds of selectivity [2] | IC50 [2] [µM] | Number of coughs and cough latency (in words) ([3]; 30 mg/kg) | inhibition in vivo at 30 mg/kg [3, 9] [%] | inhibition in vivo at 30 mg/kg [3, 10] [%] | CC50 at 48 h [4] [µM] | Ratio of quinine/water intake (in words) ([5]; 20 mg/kg) | Quinine/tap water* 100% [5, 11] [%] | half-life [6] [h] | half-life [7] [h] | half-life [8] [h] | Cough inhibition rate Vs Baseline (%) ([3]; 30 mg/kg) | Cough inhibition rate Vs Vehicle (%) ([3]; 30 mg/kg) | Mean cough latency ([3]; after administration, 30 mg/kg) | Mean number of coughs ([3]; after administration, 30 mg/kg) | Mean cough latency [3, 12] | Mean number of coughs [3, 12]
– | – | CC(=O)N1CCO[C@@H](Cc2c(-c3c(F)cc(-n4ccnc4)cc3F)nc3cc(C)ccn23)C1 [Compound 162, (S)-1-(2-((2-(2,6-difluoro-4-(1H-imidazol-1-yl)phenyl)-7-methylimidazo[1,2-a]pyridin-3-yl)methyl)morpholino)ethan-1-one] | < 0.01 | A (key: A: folds of selectivity >1000; B: 200< folds of selectivity ≤1000; C: folds of selectivity ≤200) | > 60 | can effectively reduce the number of coughs and prolong the cough latency | 46.1 | 42.8 | > 100 | almost unaffected | 6.34 | – | – | – | – | – | – | – | – | –
– | – | CCC(=O)c1ccn(-c2cc(F)c(-c3nc4cc(C)ccn4c3C[C@H]3CN(C(=O)OC)CCO3)c(F)c2)n1 [Compound 164, methyl (S)-2-((2-(2,6-difluoro-4-(3-propionyl-1H-pyrazol-1-yl)phenyl)-7-methylimidazo[1,2-a]pyridin-3-yl)methyl) morpholine-4-carboxylate] | – | A (key: A: folds of selectivity >1000; B: 200< folds of selectivity ≤1000; C: folds of selectivity ≤200) | > 60 | – | 67.2 | 65.2 | > 100 | almost unaffected | 6.69 | – | – | – | – | – | – | – | – | –
18.62 | 34.99 | COc1cc(C(C)C)c(Oc2cnc(N)nc2N)cc1S(N)(=O)=O [Positive compound 2, reference compound] | – | – | – | – | – | – | > 200 | – | 59.41 | 18.2 | 14.9 | – | – | – | – | – | – | –
– | – | COC(=O)N1CCO[C@@H](Cc2c(-c3c(F)cc(NC(C)=O)cc3F)nc3cc(C)ccn23)C1 [Compound 2, methyl (S)-2-((2-(2,6-difluoro-4-acetamidophenyl)-7-methylimidazo[1,2-a]pyridin-3-yl)-methyl)morpholine-4-carboxylate] | < 0.01 | A (key: A: folds of selectivity >1000; B: 200< folds of selectivity ≤1000; C: folds of selectivity ≤200) | > 60 | can effectively reduce the number of coughs and prolong the cough latency | 38.7 | 34.2 | 124 | almost unaffected | 5.49 | 0.872 | 1.59 | 14.9 | – | – | – | – | – | –
– | – | CNC(=O)c1cc(F)c(-c2nc3cc(C)ccn3c2C[C@H]2CN(C(=O)OC)CCO2)c(F)c1 [Positive compound 1, methyl (S)-2-((2-(2,6-difluoro-4-(4-methylcarbamoyl)phenyl)-7-methylimidazo[1,2-a]pyridin-3-yl)methyl)morpholine-4-carboxylate, reference compound] | – | >5217 | – | – | – | – | 128 | – | – | 0.89 | 1.87 | 24.2 | 47.0 | 42.6 | 226.75 | 9.88 | 80.13 | 18.63
– | – | CNC(=O)c1cc(F)c(-c2oc3cc(C)ccc3c2C[C@H]2CN(C(=O)OC)CCO2)c(F)c1 [Compound 53, methyl (S)-2-((2-(2,6-difluoro-4-(methylcarbamoyl)phenyl)-6-methylbenzofuran-3-yl)methyl)morpholine-4-carboxylate] | < 0.01 | – | – | can effectively reduce the number of coughs and prolong the cough latency | 51.7 | 47.7 | – | almost unaffected | 7.65 | – | – | – | – | – | – | – | – | –
– | – | COC(=O)N1CCO[C@@H](Cc2c(-c3c(F)cc(-c4ncc[nH]4)cc3F)nc3cc(C)ccn23)C1 [Compound 7, methyl (S)-2-((2-(2,6-difluoro-4-(1H-imidazol-2-yl)phenyl)-7-methylimidazo[1,2-a]pyridin-3-yl)methyl)morpholine-4-carboxylate] | < 0.01 | A (key: A: folds of selectivity >1000; B: 200< folds of selectivity ≤1000; C: folds of selectivity ≤200) | > 60 | can effectively reduce the number of coughs and prolong the cough latency | 42.6 | 38.3 | 195 | almost unaffected | 6.91 | 0.326 | 0.348 | 2.13 | – | – | – | – | – | –
– | – | COC(=O)N1CCO[C@@H](Cc2c(-c3c(F)cc(N)cc3F)nc3cc(Cl)ccn23)C1 [Compound 161, methyl (S)-2-((2-(4-amino-2,6-difluorophenyl)-7-chloroimidazo[1,2-a]pyridin-3-yl)methyl)morpholine-4-carboxylate] | 0.01 to 0.05 | A (key: A: folds of selectivity >1000; B: 200< folds of selectivity ≤1000; C: folds of selectivity ≤200) | > 60 | can effectively reduce the number of coughs and prolong the cough latency | 66.2 | 63.5 | > 100 | almost unaffected | 5.03 | – | – | – | – | – | – | – | – | –
– | – | CC(=O)N1CCO[C@@H](Cc2c(-c3c(F)cc(-c4nnc[nH]4)cc3F)nc3cc(C)ccn23)C1 [Compound 165] | < 0.01 | A (key: A: folds of selectivity >1000; B: 200< folds of selectivity ≤1000; C: folds of selectivity ≤200) | > 60 | can effectively reduce the number of coughs and prolong the cough latency | 54.5 | 53.6 | > 100 | almost unaffected | 3.90 | – | – | – | – | – | – | – | – | –
